The values that follow come from patent publication US7888338B2, “7-(2-cyclohexylidene-ethylidene)-spiro[4.5]decanes” (K.U. Leuven Research & Development, priority 2004, dated 2011).

For one series, the system named is MCF-7 cells. The series can be described thus: Measurement of cell proliferation, breast carcinoma cells MCF-7, [3H]thymidine incorporation. Format: cell-based. As to conditions: cell proliferation ([3H]thymidine incorporation), relative to control 1α,25(OH)2D3 = 100. Here is the method:
Selected compounds of the present invention are evaluated for their effect on cell proliferation. Malignant MCF-7 cells are cultured in DMEM nutrient mix F12 (HAM) medium which is supplemented with 10% heat inactivated FCS, glutamine (2 mM), penicillin (100 units/mL) and streptomycin (0.1 mg/mL). The cultures are maintained at 37° C. in an atmosphere of humidified air containing 5% CO2. The MCF-7 cells are seeded at approximately 5×10^3 cells/well in the DMEM modified medium in a 96-well microtiter plate. […] Finally, 1 μCi of [^3H]thymidine is added to each well and the cells are harvested after a further 4 hour incubation period. The cells are harvested with a Parckard Harvester and the cell count measured by a Packard Topcount System.

The next series deals with HL-60 cells. As to the kind of experiment: Promyelocytic leukemia cells (HL-60), differentiation markers (NBT reduction assay). Format: cell-based. Conditions: relative to control 1α,25(OH)2D3 = 100. How it is done:
Selected compounds of the present invention are evaluated for their effect on cell proliferation. Falcon tissue chambers are seeded with 4×10^4 cells/cm^2 of HL-60 cells using RPMI 1640 medium supplemented with 20% FCS and gentamycin (50 μg/mL) in a final cell volume of 5 mL. The cultures are maintained at 37° C. in an atmosphere of humidified air containing 5% CO2. […] After 4 days, the dishes are shaken to lose adherent cells. The cells are then washed twice in RPMI medium, counted, and then assayed for differentiation markers (NBT reduction assay). Superoxide production is measured as NBT reducing activity as described by Ostrem. V. K et al. Proc Natl Acad Sci USA,. 1987 84: 2610-2614. HL-60 cells at 1×10^6/mL are mixed with an equal volume of freshly prepared solution of phorbol 12-myristate 13-acetate (200 ng/mL) and NBT ([…]) and incubated for 30 minutes at 37° C. The percentage of cells containing black formazan deposits is determined using a hemacytometer.

In series [1] the target is T1, Human Vitamin D Binding Protein (hDBP) (Homo sapiens, UniProt P02774).
T1 sequence (P02774 17-474): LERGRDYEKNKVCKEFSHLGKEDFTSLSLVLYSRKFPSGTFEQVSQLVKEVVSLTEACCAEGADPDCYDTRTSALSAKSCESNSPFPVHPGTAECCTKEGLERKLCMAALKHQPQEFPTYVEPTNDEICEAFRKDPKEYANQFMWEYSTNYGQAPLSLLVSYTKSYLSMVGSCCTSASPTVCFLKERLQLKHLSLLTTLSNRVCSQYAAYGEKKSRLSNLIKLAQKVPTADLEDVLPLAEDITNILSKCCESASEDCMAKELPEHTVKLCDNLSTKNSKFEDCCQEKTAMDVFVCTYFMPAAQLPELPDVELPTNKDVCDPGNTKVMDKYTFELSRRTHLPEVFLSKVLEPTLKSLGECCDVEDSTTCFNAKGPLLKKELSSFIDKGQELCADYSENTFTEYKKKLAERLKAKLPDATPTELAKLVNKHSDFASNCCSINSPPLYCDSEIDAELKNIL
As to the kind of experiment: Affinity for Human Vitamin D Binding Protein (hDBP), displacement of [3H]1α,25(OH)2D3. Conditions: relative affinity from concentration displacing 50% of [3H]1α,25(OH)2D3, 1α,25(OH)2D3 assigned 100%, 4° C. Here is the method: The solution is incubated for 3 hours at 4° C. Final phase separation is obtained by adding 0.5 mL of cold destran-coated charcoal.
On the technique in general: Loss of bound radioactivity is the signal in a displacement assay; it reports binding, not function.

A further series concerns the target T2, Vitamin D Receptor (VDR) (Sus scrofa, UniProt A3RGC1).
T2 sequence (A3RGC1 1-427): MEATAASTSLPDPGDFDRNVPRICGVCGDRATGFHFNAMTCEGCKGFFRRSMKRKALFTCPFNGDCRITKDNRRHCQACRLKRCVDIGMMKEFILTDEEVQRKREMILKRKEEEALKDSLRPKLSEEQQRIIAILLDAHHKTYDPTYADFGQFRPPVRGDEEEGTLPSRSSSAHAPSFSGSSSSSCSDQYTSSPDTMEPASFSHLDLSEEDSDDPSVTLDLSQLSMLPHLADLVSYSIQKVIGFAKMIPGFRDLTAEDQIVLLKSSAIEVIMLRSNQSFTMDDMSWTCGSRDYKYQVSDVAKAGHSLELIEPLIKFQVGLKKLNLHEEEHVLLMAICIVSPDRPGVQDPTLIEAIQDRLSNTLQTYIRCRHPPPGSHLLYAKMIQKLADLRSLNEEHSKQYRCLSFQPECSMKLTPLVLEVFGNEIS
As to conditions: relative affinity from concentration displacing 50% of [3H]1α,25(OH)2D3; 1α,25(OH)2D3 assigned 100%; 4° C., 20 hours.

Series [2] is described as follows: In vivo determination of calcium levels (serum calcium, femur calcium). The arrangement: species or system NMRI mice. As to conditions: for Femur Ca: NMRI mice, IP daily for 7 consecutive days. From the text: . Table VII presents the serum and femur calcium levels in mice after intraperitoneal injections after 7 consecutive days.

For `CC(C)(O)CCC[C@H]1CC[C@@]2(CCC/C(=C/C=C3C[C@@H](O)C[C@H](O)C3)C2)C1` [(1R,3R)-5-{2-[(2S,5S)-2-(4-Hydroxy-4-methyl-pentyl)-spiro[4.5]dec-(7Z)-ylidene]-ethylidene}-cyclo-hexane-1,3-diol], in the series on MCF-7 cells, the MCF-7 amounted to 3. The HL-60 in the series on HL-60 cells is recorded as 0.5. In addition, the hDBP binding % in series [1] was 0%. This compound also showed a VDR binding % on Vitamin D Receptor (VDR) of 0%.
In turn, `CC(C)(O)CCC[C@H]1CC[C@]2(CCC/C(=C\C=C3C[C@@H](O)C[C@H](O)C3)C2)C1` [(1R,3R)-5-{2-[(2S,5R)-2-(4-Hydroxy-4-methyl-pentyl)-spiro[4.] [(1R,3R)-5-{2-[(2S,5R)-2-(4-hydroxy-4-methyl-pentyl)-spiro[4.5]dec-(7E)-ylidene]-ethylidene}-cyclohexane-1,3-diol] yielded an MCF-7 in the series with MCF-7 cells of 50. The compound further displayed an HL-60 in the series with HL-60 cells of 10. Also, the hDBP binding % in series [1] turned out to be 3%. Also, the VDR binding % on Vitamin D Receptor (VDR) was 0.8%.
In the series on MCF-7 cells, `CC(C)(O)CCC[C@@H]1CC[C@]2(CCC/C(=C/C=C3C[C@@H](O)C[C@H](O)C3)C2)C1` [(1R,3R)-5-{(Z)-(2R,5R))-2-[2-(4-hydroxy-4-methylpentyl)-spiro[4.5]dec-7-ylidene]-ethylidene}-cyclohexane-1,3-diol] came in with an MCF-7 of 75. In addition, the HL-60 with HL-60 cells was found to be 8. In series [1], this compound yielded a hDBP binding % of 3%. Moreover, the VDR binding % at Vitamin D Receptor (VDR) is reported as 0.8%.
In turn, `CC(C)(O)CCC[C@@H]1CC[C@]2(CCC/C(=C\C=C3C[C@@H](O)C[C@H](O)C3)C2)C1` [(1R,3R)-5-{(E)-(2R,5R))-2-[2-(4-hydroxy-4-methylpentyl)-spiro[4.5]dec-7-ylidene]-ethylidene}-cyclohexane-1,3-diol] gave an MCF-7 in the series with MCF-7 cells of 450. The same compound yielded an HL-60 with HL-60 cells of 200. Besides, in series [1], the hDBP binding % amounted to 3%. Moreover, the “less calcemic than the control” value in series [2] (mouse, in vivo) is “approximately 200 times”. Besides, the estimated serum calcium in series [2] (mouse, in vivo, ip) is reported as 0.5%. In addition, the VDR binding % on Vitamin D Receptor (VDR) is 10%.
In the series with MCF-7 cells, `CC(C)(O)CCC[C@H]1CC[C@]2(CCC/C(=C/C=C3C[C@@H](O)C[C@H](O)C3)C2)C1` [(1R,3R)-5-{(Z)-(2R,5S))-2-[2-(4-hydroxy-4-methylpentyl)-spiro[4.5]dec-7-ylidene]-ethylidene}-cyclohexane-1,3-diol] displayed an MCF-7 of 4. For the same compound, the HL-60 in the series with HL-60 cells is on record as under 1. The hDBP binding % in series [1] is recorded as 0%. Moreover, the VDR binding % at Vitamin D Receptor (VDR) is listed as 0%.
`CC(C)(O)CCC[C@H]1CC[C@@]2(CCC/C(=C\C=C3C[C@@H](O)C[C@H](O)C3)C2)C1` [(1R,3R)-5-{2-[(2S,5S)-2-(4-Hydroxy-4-methyl-pentyl)-spiro[4.5]dec-(7E)-ylidene]-ethylidene}-cyclo-hexane-1,3-diol] registered an MCF-7 in the series with MCF-7 cells of 20. The HL-60 in the series with HL-60 cells is 8. The compound also yielded a hDBP binding % in series [1] of 0%. Moreover, at Vitamin D Receptor (VDR), the VDR binding % came to 0.7%.
`C=C1/C(=C\C=C2/CCC[C@]3(C)[C@@H]([C@H](C)CCCC(C)(C)O)CC[C@@H]23)C[C@@H](O)C[C@@H]1O` [1α,25(OH)2D3, 1α,25-dihydroxyvitamin D3] displayed an HL-60 in the series on HL-60 cells of 100. Further, the “Femur Ca” value came out at 10.9 mg in series [2] (0.1 μg/kg/d), 10.3 mg in series [2] (0.2 μg/kg/d) and 8.9 mg in series [2] (0.4 μg/kg/d). Also, in series [2] (as compared with 1α,25(OH)2D3 (control assigned 100%), mice, IP daily, 7 consecutive days), the estimated serum calcium is 100%.
`CC(C)(O)CCCC1CCC2(CCC/C(=C/C=C3C[C@@H](O)C[C@H](O)C3)C2)C1` (stereo in doubt) [(1R,3R)-5-{2-[(2S, 5R)-2-(4-hydroxy-4-methylpentyl)-spiro[4.5]dec-(7Z)-ylidene]-ethylidene}-cyclo-hexane-1,3-diol]: the MCF-7 in the series on MCF-7 cells came to 8. Besides, the HL-60 with HL-60 cells is listed as 0.9. In series [1], this compound registered a hDBP binding % of 3%. This compound also registered a VDR binding % on Vitamin D Receptor (VDR) of 0.4%.
The corresponding values for `CC(C)(O)CCC[C@H]1CC[C@]2(CCC/C(=C\C=C3C[C@@H](O)C[C@H](O)C3)C2)C1` [(1R,3R)-5-{2-[(2R,5S)-2-(4-Hydroxy-4-methyl-pentyl)-spiro[4.] [(1R,3R)-5-{(E)-(2R,5S))-2-[2-(4-hydroxy-4-methylpentyl)-spiro[4.5]dec-7-ylidene]-ethylidene}-cyclohexane-1,3-diol] are 9, 4, 0% and 0.4%.
